Measured values published in patent US4620014A, “2-furylbutyrolactones and methods for using same” (priority 1983, dated 1986).
Where “and” joins values, the source holds several entries; their conditions need not be identical. Equal values may be shown once. Read-outs that look alike come from different tables or passages of the source.

Experiments:
[1] = tested on: spleen lymphocytes of KLH-immunized C57BL/6 mice; settings: for Lymphocyte Stimulation Index, Con-A / Lymphocyte Stimulation Index, Control (no mitogen) / Lymphocyte Stimulation Index, PHA: day 17
Source text: The effect of the compounds of this invention on the immune response to specific antigens involves immunization of mice with specific anitgens such as bovine serum albumin (BSA) or keyhole limpet hemocyanin (KLH). Following immunization, it is possible to assess the cell-mediated or humoral (antibody) immune response to these antigens by various methods:
(1) Lymphocyte stimulation assays can be performed using varying concentrations of the specific antigens as mitogens in the lymphocyte stimulation microculture system described above. The only difference is that the incubation period is extended to five days instead of three as for the polyclonal mitogens.
Mice of the C57BL/6 strain are given i.p. injections of either 50, 100, 200 or 400 mg/kg of Cpd. 1 or buffer for ten days (days 1-10). An antigen, keyhole limpet hemocyanin (KLH), is administered intraperitoneally with Freund's Complete Adjuvant (FCA) on days 1, 7, and 13. Blood samples are taken for assay of the antibody response on days 0, 5, 12, and 17. Spleens are removed, lymphocytes isolated and a lymphocyte stimulation assay with PHA, Con-A or KLH antigen as the mitogens is performed on day 17 of the experiment.

[2] = tested on: L5178Y tumor cells; settings: 100 mg/kg i.p., 7 days
Method: (§1) Ten days later the resultant tumor nodule, about 1 cm in size, is surgically excised. If the excision was successful, no subcutaneous tumors develop at the site of implantation. […] These mice are considered to be in the tumor dormant state.
(§2) The effect of Cpd. 1 on the emergence from the L5178Y tumor dormant state is studied by treating forty DBA/2 mice with Cpd. 1 after the mice have undergone the TDS inducing procedure. […] 1 at 100 mg/kg and the remaining twenty mice receive buffer only. A partial peritoneal lavage is performed twenty-five days after the last dose of Cpd. 1 and the peritoneal exudate fluid is plated out for determination of tumor cell numbers (tumor cell quantitative assay). Survival time is recorded out to 90 days after challenge with the viable L5178Y tumor cells. The percent mortality is calculated for each group.
(§3) The effect of Cpd. 1 on the emergence from the L5178Y tumor dormant state was studied by treating forty DBA/2 mice with Cpd. 1 after the mice had undergone the TDS inducing procedure. Two days after the mice were challenged with i.p. administration of 50,000 viable L5178Y tumor cells, twenty of these mice received seven consecutive days of i.p. treatment with Cpd. 1 at 100 mg/kg and the remaining twenty mice received buffer only. A partial peritoneal lavage was performed twenty-five days after the last dose of Cpd. 1 and the peritoneal exudate fluid was plated out for determination of tumor cell numbers (tumor cell quantitative assay). Survival time was recorded out to 114 days after challenge with the viable L5178Y tumor cells. The percent mortality was calculated for each group.

[3] = tested on: L5178Y tumor; settings: 100 mg/kg i.p., 7 days
Method: as §1, §2, §3

[4] = tested on: human lymphocytes; assay: In vitro lymphocyte stimulation assay in humans; type: cell-based; settings: PHA and Con-A
Method: The purpose of this assay is to challenge lymphocytes in microcultures with one or more polyclonal mitogens at concentrations that will induce mitogenesis within 72 hours of stimulation.
In the mouse model, spleens are removed from different strains of mice and the spleen cells are teased free and suspended in RPMI-1640 tissue culture medium at a concentration of usually 1×10^7 ml. These cells are dispensed at a concentration of 5.0×10^5 cells per microculture well in a 96 well flat bottom 96 well tissue culture plate. All testing of the compounds of this invention or mitogens are done in replicates of 10. The cells are then treated with PHA, Con-A, specific antigens, or buffer only. If in vitro testing is done, varying concentrations of the compounds of this invention or buffer only are added to the cells as well. After treatment with the mitogens and/or compounds of this invention, the cells are incubated for 72 hours. The response of these cells to mitogens and/or the compounds of this invention is assessed using ^14 C-thymidine labeling on the fourth day at a concentration of 0.01 μCi/well. The labeled cells are harvested using a lymphocyte harvestor and placed onto fibrous paper discs. A scintillation cocktail is added to vials contaning the discs and the results are obtained using a LKB-liquid scintillation counter (Model 1216/Rackbeta II). The data is expressed as a ratio of the cpm of the mitogen stimulated group to the control (non-mitogen) treated group=lymphocyte stimulation index (LSI).
The lymphocyte stimulation assay may be performed directly on spleen cells obtained from various strains of mice not treated with the compounds of this invention or on lymphocytes obtained from […]. […] Alternatively, the mice may be treated in vivo with the compounds of this invention by intraperitoneal multi-dose schedules, followed by sacrifice and harvesting spleen lymphocytes. These cells are then tested for their response to polyclonal mitogens or specific antigens used to immunize the mice. […]

Cc1ccc(C2(O)C(=O)OC3C(O)COC32O)o1.Cc1ccc(C2(O)C(=O)OC3C(O)COC32O)o1.O=C1CCC(=O)O1 (stereo not shown) [Cpd. 1]
Lymphocyte Stimulation Index, Con-A ([1]; 50 mg/kg i.p.): 19.0 | Lymphocyte Stimulation Index, Control (no mitogen) ([1]; 50 mg/kg i.p.): 0.976 | Lymphocyte Stimulation Index, PHA ([1]; 50 mg/kg i.p.): 7.65 | Lymphocyte Stimulation Index, KLH ([1]; 50 mg/kg i.p., day 17, KLH 0.025 μg/well): 0.0386 | Lymphocyte Stimulation Index, KLH ([1]; 50 mg/kg i.p., day 17, KLH 0.5 μg/well (first 0.5 column)): 0.415 | Lymphocyte Stimulation Index, KLH ([1]; 50 mg/kg i.p., day 17, KLH 0.5 μg/well (second 0.5 column)): 0.357 | Lymphocyte Stimulation Index, KLH ([1]; 50 mg/kg i.p., day 17, KLH 1.0 μg/well): 0.536 | Lymphocyte Stimulation Index, Con-A ([1]; 100 mg/kg i.p.): 15.6 | Lymphocyte Stimulation Index, Control (no mitogen) ([1]; 100 mg/kg i.p.): 0.961 | Lymphocyte Stimulation Index, PHA ([1]; 100 mg/kg i.p.): 9.12 | Lymphocyte Stimulation Index, KLH ([1]; 100 mg/kg i.p., day 17, KLH 0.025 μg/well): 0.401 | Lymphocyte Stimulation Index, KLH ([1]; 100 mg/kg i.p., day 17, KLH 0.5 μg/well (first 0.5 column)): 0.734 | Lymphocyte Stimulation Index, KLH ([1]; 100 mg/kg i.p., day 17, KLH 0.5 μg/well (second 0.5 column)): 0.526 | Lymphocyte Stimulation Index, KLH ([1]; 100 mg/kg i.p., day 17, KLH 1.0 μg/well): 0.898 | Lymphocyte Stimulation Index, Con-A ([1]; 200 mg/kg i.p.): 51.7 | Lymphocyte Stimulation Index, Control (no mitogen) ([1]; 200 mg/kg i.p.): 1.73 | Lymphocyte Stimulation Index, PHA ([1]; 200 mg/kg i.p.): 12.4 | Lymphocyte Stimulation Index, KLH ([1]; 200 mg/kg i.p., day 17, KLH 0.025 μg/well): 3.91 | Lymphocyte Stimulation Index, KLH ([1]; 200 mg/kg i.p., day 17, KLH 0.5 μg/well (first 0.5 column)): 4.26 | Lymphocyte Stimulation Index, KLH ([1]; 200 mg/kg i.p., day 17, KLH 0.5 μg/well (second 0.5 column)): 1.02 | Lymphocyte Stimulation Index, KLH ([1]; 200 mg/kg i.p., day 17, KLH 1.0 μg/well): 7.45 | lymphocyte DNA synthesis ([1]; 200 mg/kg, day 17, Con-A or KLH): statistically significant increase in lymphocyte DNA synthesis | Lymphocyte Stimulation Index, Con-A ([1]; 400 mg/kg i.p.): 35.5 | Lymphocyte Stimulation Index, Control (no mitogen) ([1]; 400 mg/kg i.p.): 0.840 | Lymphocyte Stimulation Index, PHA ([1]; 400 mg/kg i.p.): 2.32 | Lymphocyte Stimulation Index, KLH ([1]; 400 mg/kg i.p., day 17, KLH 0.025 μg/well): 1.03 | Lymphocyte Stimulation Index, KLH ([1]; 400 mg/kg i.p., day 17, KLH 0.5 μg/well (first 0.5 column)): 0.232 | Lymphocyte Stimulation Index, KLH ([1]; 400 mg/kg i.p., day 17, KLH 0.5 μg/well (second 0.5 column)): 0.667 | Lymphocyte Stimulation Index, KLH ([1]; 400 mg/kg i.p., day 17, KLH 1.0 μg/well): 0.589 | numbers of tumor cells recovered versus controls [2]: significant reduction in the numbers of tumor cells | Frequency of mice, Treated Group ([2]; 1,000 to 100,000 tumor cells): 7 and 4 | % of Total, Treated Group ([2]; >100,000 tumor cells): 6% and 4.3% | Frequency of mice, Treated Group ([2]; >100,000 tumor cells): 1 | survival versus untreated controls [3]: significantly greater survival | % Survival ([3]; 90 days post-challenge): 55.6% | No. Survivors ([3]; 90 days post-challenge): 10 | % Survival ([3]; 114 days post-challenge): 82.6% | No. Survivors ([3]; 114 days post-challenge): 19 | lymphocyte response, very low doses ([4]; 1 and 0.1 μg/ml): markedly increased lymphocyte response | lymphocyte response, high dose ([4]; 100 and 50 μg/ml): high dose anti-proliferative effect
